# In ChEMBL document CHEMBL3272309, “Potential central nervous system antitumor agents. Aziridinylbenzoquinones. 1” (J Med Chem, 1976):
# Active and inactive are the calls of the source. No cut-off for these calls is given here.
# Assays:
# P388 [1] = test: Antitumor activity against mouse P388 cells allografted in mouse assessed as mouse survival at 1.56 mg/kg, ip qd administered from day 1 to 9 post intracerebral tumor-implantation relative to control; format: functional; conditions: route intraperitoneal
# [2] = Antitumor activity against mouse ependymoblastoma cells allografted in mouse assessed as change in body weight at 0.5 mg/kg, ip qd administered from day 1 to 5 post intracerebral tumor-implantation measured on day 5 relative to control; format: functional; conditions: route intraperitoneal
# [3] = Antitumor activity against mouse ependymoblastoma cells allografted in mouse assessed as mouse survival at 0.25 mg/kg, ip qd administered from day 1 to 5 post intracerebral tumor-implantation relative to control; format: functional; conditions: route intraperitoneal
# Mus musculus [4] = test: Antitumor activity against mouse ependymoblastoma cells allografted in mouse assessed as cure rate at 2 mg/kg, ip qd administered from day 1 to 5 post intracerebral tumor-implantation measured on day 99; format: functional, organism-based; design: dose 2 mg/kg
# P388 [5] = test: Antitumor activity against mouse P388 cells allografted in mouse assessed as change in body weight at 6.25 mg/kg, ip qd administered from day 1 to 9 post ip tumor-implantation measured on day 5 relative to control; format: functional; conditions: route intraperitoneal
# [6] = system: Lewis lung carcinoma cell line; test: Antitumor activity against mouse LLC cells allografted in mouse assessed as mouse survival at 2 mg/kg, ip qd administered from day 5 to 15 post sc tumor-implantation relative to control; format: functional; conditions: route subcutaneous
# L1210 [7] = test: Antitumor activity against mouse L1210 cells allografted in mouse assessed as change in body weight at 0.88 mg/kg, ip qd administered from day 1 to 9 post ip tumor-implantation measured on day 5 relative to control; format: functional; conditions: route intraperitoneal
# [8] = Therapeutic ratio, ratio of highest active dose to lowest active for antitumor activity against in ip dosed mouse allografted with mouse LLC cells; format: organism-based, Lewis lung carcinoma; conditions: in vivo, read-out: TI
# Mus musculus [9] = test: Toxicity in mouse allografted with mouse B16 cells at 6.25 mg/kg, ip qd administered from day 1 to 9 post ip tumor-implantation; format: organism-based; design: dose 6.25 mg/kg, route intraperitoneal; conditions: in vivo
# L1210 [10] = test: Antitumor activity against mouse L1210 cells allografted in mouse assessed as change in body weight at 6.25 mg/kg, ip qd administered from day 1 to 9 post ip tumor-implantation measured on day 5 relative to control; format: functional; conditions: route intraperitoneal
# Mus musculus [11] = test: Toxicity in mouse allografted with mouse ependymoblastoma cells at 8 mg/kg, ip qd administered from day 1 to 5 post intracerebral tumor-implantation; format: organism-based; design: dose 8 mg/kg, route intraperitoneal; conditions: in vivo
# B16 [12] = test: Antitumor activity against mouse B16 cells allografted in mouse assessed as mouse survival at 1.56 mg/kg, ip qd administered from day 1 to 9 post ip tumor-implantation relative to control; format: functional; conditions: route intraperitoneal
# [13] = system: Lewis lung carcinoma cell line; test: Antitumor activity against mouse LLC cells allografted in mouse assessed as change in body weight at 2 mg/kg, ip qd administered from day 5 to 15 post sc tumor-implantation measured on day 5 relative to control; format: functional; conditions: route subcutaneous
# L1210 [14] = test: Antitumor activity against mouse L1210 cells allografted in mouse assessed as change in body weight at 2 mg/kg, ip qd administered from day 1 to 9 post ip tumor-implantation measured on day 5 relative to control; format: functional; conditions: route intraperitoneal
# B16 [15] = test: Antitumor activity against mouse B16 cells allografted in mouse assessed as mouse survival at 0.78 mg/kg, ip qd administered from day 1 to 9 post ip tumor-implantation relative to control; format: functional; conditions: route intraperitoneal
# [16] = system: Lewis lung carcinoma cell line; test: Antitumor activity against mouse LLC cells allografted in mouse assessed as change in body weight at 4 mg/kg, ip qd administered from day 5 to 15 post sc tumor-implantation measured on day 5 relative to control; format: functional; conditions: route subcutaneous
# [17] = Antitumor activity against mouse ependymoblastoma cells allografted in mouse assessed as mouse survival at 1 mg/kg, ip qd administered from day 1 to 5 post intracerebral tumor-implantation relative to control; format: functional; conditions: route intraperitoneal
# L1210 [18] = test: Antitumor activity against mouse L1210 cells allografted in mouse assessed as change in body weight at 12.5 mg/kg, ip qd administered from day 1 to 9 post ip tumor-implantation measured on day 5 relative to control; format: functional; conditions: route intraperitoneal
# P388 [19] = test: Antitumor activity against mouse P388 cells allografted in mouse assessed as change in body weight at 3.12 mg/kg, ip qd administered from day 1 to 9 post ip tumor-implantation measured on day 5 relative to control; format: functional; conditions: route intraperitoneal
# P388 [20] = test: Antitumor activity against mouse P388 cells allografted in mouse assessed as change in body weight at 1.56 mg/kg, ip qd administered from day 1 to 9 post intracerebral tumor-implantation measured on day 5 relative to control; format: functional; conditions: route intraperitoneal
# [21] = system: Lewis lung carcinoma cell line; test: Antitumor activity against mouse LLC cells allografted in mouse assessed as mouse survival at 1 mg/kg, ip qd administered from day 5 to 15 post sc tumor-implantation relative to control; format: functional; conditions: route subcutaneous
# [22] = Antitumor activity against mouse ependymoblastoma cells allografted in mouse assessed as mouse survival at 4 mg/kg, ip qd administered from day 1 to 5 post intracerebral tumor-implantation relative to control; format: functional; conditions: route intraperitoneal
# L1210 [23] = test: Antitumor activity against mouse L1210 cells allografted in ip dosed mouse at optimum dose administered qd on day 1, 5 and 9 relative to control; format: functional
# Mus musculus [24] = test: Toxicity in mouse allografted with mouse LLC cells at 4 mg/kg, ip qd administered from day 5 to 15 post sc tumor-implantation; format: organism-based; design: dose 4 mg/kg; conditions: in vivo
# L1210 [25] = test: Antitumor activity against mouse L1210 cells allografted in mouse assessed as change in body weight at 1.56 mg/kg, ip qd administered from day 1 to 9 post intracerebral tumor-implantation measured on day 5 relative to control; format: functional; conditions: route intraperitoneal
# [26] = Therapeutic ratio, ratio of highest active dose to lowest active for antitumor activity against in ip dosed mouse allografted with mouse P388 cells; format: ADME, organism-based; conditions: in vivo, read-out: TI
# P388 [27] = test: Antitumor activity against mouse P388 cells allografted in mouse assessed as mouse survival at 0.78 mg/kg, ip qd administered from day 1 to 9 post ip tumor-implantation relative to control; format: functional; conditions: route intraperitoneal
# Mus musculus [28] = test: Toxicity in mouse allografted with mouse ependymoblastoma cells at 4 mg/kg, ip qd administered from day 1 to 5 post intracerebral tumor-implantation; format: organism-based; design: dose 4 mg/kg, route intraperitoneal; conditions: in vivo
# P388 [29] = test: Antitumor activity against mouse P388 cells allografted in mouse assessed as change in body weight at 0.39 mg/kg, ip qd administered from day 1 to 9 post intracerebral tumor-implantation measured on day 5 relative to control; format: functional; conditions: route intraperitoneal
# P388 [30] = test: Antitumor activity against mouse P388 cells allografted in mouse assessed as change in body weight at 0.78 mg/kg, ip qd administered from day 1 to 9 post intracerebral tumor-implantation measured on day 5 relative to control; format: functional; conditions: route intraperitoneal
# P388 [31] = test: Antitumor activity against mouse P388 cells allografted in mouse assessed as change in body weight at 1.56 mg/kg, ip qd administered from day 1 to 9 post ip tumor-implantation measured on day 5 relative to control; format: functional; conditions: route intraperitoneal
# [32] = Aqueous solubility of the compound; format: physicochemical
# L1210 [33] = test: Antitumor activity against mouse L1210 cells allografted in ip dosed mouse assessed as optimum dose administered qd on day 1, 5 and 9; format: functional
# [34] = Antitumor activity against mouse ependymoblastoma cells allografted in mouse assessed as change in body weight at 4 mg/kg, ip qd administered from day 1 to 5 post intracerebral tumor-implantation measured on day 5 relative to control; format: functional; conditions: route intraperitoneal
# L1210 [35] = test: Antitumor activity against mouse L1210 cells allografted in mouse assessed as mouse survival at 1.56 mg/kg, ip qd administered from day 1 to 9 post intracerebral tumor-implantation relative to control; format: functional; conditions: route intraperitoneal
smiles,measurement,setting,value
CCOC(=O)NC1=C(N2CC2)C(=O)C(NC(=O)OCC)=C(N2CC2)C1=O [DIAZIQUONE],T/C,P388 [1],137%
same,Activity,[2],-1.8 g
same,T/C,[3],130%
same,Activity,Mus musculus [4],Active
same,Activity,P388 [5],-6.1 g
same,T/C,[6],134%
same,Activity,L1210 [7],-1.4 g
same,selectivity ratio,[8],3
same,Activity,Mus musculus [9],Toxic
same,Activity,L1210 [10],-4.1 g
same,Activity,Mus musculus [11],Toxic
same,T/C,B16 [12],138%
same,Activity,[13],0.3 g
same,Activity,L1210 [14],-3.8 g
same,T/C,B16 [15],113%
same,Activity,[16],-0.1 g
same,T/C,[17],226%
same,Activity,L1210 [18],-5 g
same,Activity,P388 [19],-4.1 g
same,Activity,P388 [20],-1.1 g
same,T/C,[21],89%
same,T/C,[22],376%
same,T/C,L1210 [23],154%
same,Activity,Mus musculus [24],Toxic
same,Activity,L1210 [25],-0.6 g
same,selectivity ratio,[26],3
same,T/C,P388 [27],199%
same,Activity,Mus musculus [28],Toxic
same,Activity,P388 [29],-0.7 g
same,Activity,P388 [30],-0.4 g
same,Activity,P388 [31],-4 g
same,solubility,[32],500 µg/mL
same,Activity,L1210 [33],6.25 mg/kg
same,Activity,[34],-3.9 g
same,T/C,L1210 [35],146%
